Data as given in patent US11059830B2, “Compounds that participate in cooperative binding and uses thereof” (Revolution Medicines, Inc., priority 2015, dated 2021).

Target: FKBP12 (Homo sapiens (Human), UniProt P62942)
Assay: SPR binding of compound (analyte) to immobilized FKBP12 (Example 7)
Details: 25° C., 12×HIS tagged FKBP12 immobilized on NTA chip; read-out: SPR affinity to FKBP12: KD
Protocol: This protocol utilizes Surface Plasmon Resonance (SPR) as a method to determine kinetics (KD, Ka, Kd) for the binding of compound (analyte) to immobilized FKBP12 (ligand).
Compound in 100% DMSO (in-house), 10×HBS-P+ buffer (GE Healthcare BR-1006-71), Assay buffer (1×HBS-P+ buffer, 1% DMSO), 12×HIS tagged FKBP12 (in-house).
Experiments are performed at 25° C. Stock solution of 12×HIS tagged FKBP12 is diluted to 100 nM in assay buffer (1% DMSO final). Approximately 500-600 RU of FKBP12 is immobilized on one of two flow cells of an activated NTA chip. The second flow cell is not activated as a reference for non-specific interaction of the analyte to the sensor chip. Various concentrations of compound (1 nM-1 μM range), serially diluted into the same assay buffer (1% DMSO final), are injected onto the FKBP12 surface and reference surface at a flow rate of 10 μl/min. The surface is regenerated between analyte injections with 350 mM EDTA.
The BiaEvaluation software program is used for data fitting. All data is reference subtracted against both the reference flow cell and a buffer injection. For kinetic analyses, data is locally fit to a 1:1 interaction model.

FKBP12, sequence (P62942 whole entry): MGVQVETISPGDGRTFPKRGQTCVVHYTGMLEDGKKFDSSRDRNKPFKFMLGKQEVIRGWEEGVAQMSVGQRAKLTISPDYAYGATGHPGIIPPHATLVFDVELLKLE

CC[C@H](Cc1ccccc1)[C@@H]1/C=C/C/C=C/C[C@@H](C)[C@H](O)[C@@H](C)[C@@H]2CC[C@@H](C)C(=O)C(O)(O2)C(=O)N2CCCC[C@H]2C(=O)O1 [Compound 2]
Kd: 12.6 nM
